Experiments:
CnAcs1 [1] = biological target: T1, CnAcs1 (Cryptococcus neoformans, UniProt J9VFT1); test: Coupled continuous pyrophosphate detection assay (EnzChek) of ACS activity; settings: for utilization as substrate for CnAcs1: alternative acid substrates
CnAcs1 [2] = biological target: T1, CnAcs1; test: biochemical; format: binding; settings: read-out: thermal shift (ΔTm)
C. albicans Acs1 = C. albicans Acs1 (Candida albicans, UniProt Q8NJN3); test: Coupled continuous pyrophosphate detection assay (EnzChek) of ACS activity
Chain of C. albicans Acs1 (Q8NJN3 2-671 limits assumed): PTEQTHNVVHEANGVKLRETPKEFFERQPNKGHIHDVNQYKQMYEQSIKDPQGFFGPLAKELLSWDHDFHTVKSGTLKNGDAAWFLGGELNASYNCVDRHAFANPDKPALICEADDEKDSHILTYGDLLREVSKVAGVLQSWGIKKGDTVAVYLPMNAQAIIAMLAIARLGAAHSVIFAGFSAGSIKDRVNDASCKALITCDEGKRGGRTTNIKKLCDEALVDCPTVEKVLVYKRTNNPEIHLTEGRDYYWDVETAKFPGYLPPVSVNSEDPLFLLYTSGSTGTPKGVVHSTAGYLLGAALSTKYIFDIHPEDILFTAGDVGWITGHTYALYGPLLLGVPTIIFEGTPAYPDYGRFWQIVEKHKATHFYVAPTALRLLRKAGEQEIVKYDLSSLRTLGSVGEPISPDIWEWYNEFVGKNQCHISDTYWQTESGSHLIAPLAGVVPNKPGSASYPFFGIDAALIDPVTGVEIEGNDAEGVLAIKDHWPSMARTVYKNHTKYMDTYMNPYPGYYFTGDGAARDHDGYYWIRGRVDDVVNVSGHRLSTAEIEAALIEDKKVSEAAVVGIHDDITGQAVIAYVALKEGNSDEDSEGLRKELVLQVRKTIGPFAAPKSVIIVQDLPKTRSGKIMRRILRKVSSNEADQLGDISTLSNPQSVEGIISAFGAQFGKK

A. fumigatus Acs1 = biological target: T2, A. fumigatus Acs1 (Aspergillus fumigatus, UniProt Q4WQ02); test: as above
T2 sequence (Q4WQ02 2-670): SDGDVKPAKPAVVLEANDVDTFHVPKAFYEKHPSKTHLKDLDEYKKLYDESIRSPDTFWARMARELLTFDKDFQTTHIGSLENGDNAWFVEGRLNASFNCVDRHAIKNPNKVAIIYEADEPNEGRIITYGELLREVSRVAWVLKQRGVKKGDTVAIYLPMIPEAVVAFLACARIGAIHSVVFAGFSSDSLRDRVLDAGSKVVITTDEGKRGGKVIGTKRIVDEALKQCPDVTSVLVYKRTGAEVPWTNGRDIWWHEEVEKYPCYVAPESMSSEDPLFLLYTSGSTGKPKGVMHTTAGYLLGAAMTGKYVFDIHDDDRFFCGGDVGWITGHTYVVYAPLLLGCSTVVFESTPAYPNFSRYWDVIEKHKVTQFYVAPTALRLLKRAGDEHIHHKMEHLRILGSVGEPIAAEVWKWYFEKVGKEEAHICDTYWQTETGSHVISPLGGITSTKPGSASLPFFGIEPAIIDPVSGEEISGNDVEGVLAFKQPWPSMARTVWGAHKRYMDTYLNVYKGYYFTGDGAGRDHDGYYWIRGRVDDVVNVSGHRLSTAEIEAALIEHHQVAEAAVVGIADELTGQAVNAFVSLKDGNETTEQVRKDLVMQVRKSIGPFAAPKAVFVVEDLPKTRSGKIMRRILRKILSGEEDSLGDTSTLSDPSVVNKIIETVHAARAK

[3] = test system: Nc1ncnc2c1ncn2[C@@H]1O[C@H](COP(=O)(O)OP(=O)(O)OP(=O)(O)O)[C@@H](O)[C@H]1O; test: purified protein, by the assay type; settings: 37.0 °C
[4] = test system: CC(C)(COP(=O)(O)OP(=O)(O)OC[C@H]1O[C@@H](n2cnc3c(N)ncnc32)[C@H](O)[C@@H]1OP(=O)(O)O)[C@@H](O)C(=O)NCCC(=O)NCCS; test: purified protein, by the assay type
C. posadasii Acs1 = C. posadasii Acs1 (Coccidioides posadasii, UniProt C5PGB4); test: biochemical
Chain of C. posadasii Acs1 (C5PGB4 2-691 limits assumed): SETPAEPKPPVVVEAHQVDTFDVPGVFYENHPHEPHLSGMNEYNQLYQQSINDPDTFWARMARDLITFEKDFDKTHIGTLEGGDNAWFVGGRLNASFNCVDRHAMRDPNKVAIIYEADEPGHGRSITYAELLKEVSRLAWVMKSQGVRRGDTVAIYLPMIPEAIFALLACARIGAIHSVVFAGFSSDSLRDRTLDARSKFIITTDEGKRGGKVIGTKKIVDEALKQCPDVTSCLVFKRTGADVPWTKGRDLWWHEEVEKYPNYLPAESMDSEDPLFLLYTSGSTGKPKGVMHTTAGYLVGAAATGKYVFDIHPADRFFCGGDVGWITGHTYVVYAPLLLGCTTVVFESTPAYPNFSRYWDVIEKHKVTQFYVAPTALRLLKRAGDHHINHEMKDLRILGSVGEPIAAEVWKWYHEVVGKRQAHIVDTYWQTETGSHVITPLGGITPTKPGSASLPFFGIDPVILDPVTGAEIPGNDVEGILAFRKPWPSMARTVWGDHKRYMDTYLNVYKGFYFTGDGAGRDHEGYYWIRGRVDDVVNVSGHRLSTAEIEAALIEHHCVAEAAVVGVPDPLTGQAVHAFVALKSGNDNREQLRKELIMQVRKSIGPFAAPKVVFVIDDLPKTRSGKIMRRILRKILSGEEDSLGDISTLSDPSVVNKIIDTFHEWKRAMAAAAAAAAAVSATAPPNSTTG

C. immitis Acs1 = C. immitis Acs1 (Coccidioides immitis, UniProt J3KJC6); test: biochemical
Chain of C. immitis Acs1 (J3KJC6 2-691 limits assumed): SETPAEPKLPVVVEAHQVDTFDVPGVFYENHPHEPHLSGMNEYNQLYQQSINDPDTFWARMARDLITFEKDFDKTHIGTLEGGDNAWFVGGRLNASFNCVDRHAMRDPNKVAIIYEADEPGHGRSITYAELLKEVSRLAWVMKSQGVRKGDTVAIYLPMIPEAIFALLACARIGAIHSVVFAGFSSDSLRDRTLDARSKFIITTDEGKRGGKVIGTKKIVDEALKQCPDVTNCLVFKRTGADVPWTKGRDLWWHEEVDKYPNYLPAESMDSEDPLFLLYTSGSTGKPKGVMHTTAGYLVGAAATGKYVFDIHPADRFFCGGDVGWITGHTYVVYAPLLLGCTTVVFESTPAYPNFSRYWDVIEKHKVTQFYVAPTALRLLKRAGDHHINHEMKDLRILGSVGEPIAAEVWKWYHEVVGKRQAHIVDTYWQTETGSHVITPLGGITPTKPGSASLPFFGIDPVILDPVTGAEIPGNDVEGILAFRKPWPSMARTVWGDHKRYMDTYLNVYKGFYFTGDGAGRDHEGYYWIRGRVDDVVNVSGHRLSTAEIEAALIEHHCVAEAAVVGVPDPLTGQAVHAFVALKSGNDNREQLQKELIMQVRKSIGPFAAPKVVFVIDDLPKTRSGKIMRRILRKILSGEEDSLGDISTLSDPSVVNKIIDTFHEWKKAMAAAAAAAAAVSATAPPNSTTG

[5] = substrate: Nc1ncnc2c1ncn2[C@@H]1O[C@H](COP(=O)(O)OP(=O)(O)OP(=O)(O)O)[C@@H](O)[C@H]1O; test: purified protein, by the assay type; settings: 37 °C, ±S.E.M.
[6] = substrate: CC(C)(COP(=O)(O)OP(=O)(O)OC[C@H]1O[C@@H](n2cnc3c(N)ncnc32)[C@H](O)[C@@H]1OP(=O)(O)O)[C@@H](O)C(=O)NCCC(=O)NCCS; test: purified protein, by the assay type; settings: 37 °C, ±S.E.M.
[7] = other: substrate Km, other substrates in excess
[8] = other: substrate Km, other substrates in excess (ATP 2.5 mM, CoA 1 mM, sodium acetate 0.5 mM)
[9] = other: commercially available enzyme, control, other substrates in excess

## CC(=O)NS(=O)(=O)OC[C@H]1O[C@@H](n2cnc3c(N)ncnc32)[C@H](O)[C@@H]1O [acyl-AMS, acetyl-adenosine monosulfonamide]
CnAcs1 [1]
  Ki: 590 nM

## CCC(=O)O [propionate, reference compound]
CnAcs1 [1]; alternative acid substrate, relative to acetate
  Km fold higher than acetate: > 100 fold

## Nc1ncnc2c1ncn2[C@@H]1O[C@H](COS(N)(=O)=O)[C@@H](O)[C@H]1O [AMS, adenosine monosulfonamide]
CnAcs1 [1]
  Ki: > 50000 nM
CnAcs1 [2]
  ΔTm at 1000 µM: -0.2 °C

## Nc1ncnc2c1ncn2[C@@H]1O[C@H](COP(=O)(O)OP(=O)(O)OP(=O)(O)O)[C@@H](O)[C@H]1O [ATP, adenosine triphosphate, reference compound]
CnAcs1 [1]
  calculated binding energy ΔG: -6 kcal/mol

## CCCC(=O)O [butyrate, reference compound]
CnAcs1 [1]
  utilization as substrate for CnAcs1: neither valerate nor butyrate were CnAcs1 substrates
CnAcs1 [1]; non-preferred acid substrate
  inhibition of acetate utilization: does not inhibit

## CCCCC(=O)O [valerate, reference compound]
CnAcs1 [1]
  utilization as substrate for CnAcs1: neither valerate nor butyrate were CnAcs1 substrates

## CCCCOP(=O)(O)OC[C@H]1O[C@@H](n2cnc3c(N)ncnc32)[C@H](O)[C@@H]1O [butyl-AMP]
C. albicans Acs1
  IC50: > 50000 nM
A. fumigatus Acs1
  IC50: > 50000 nM
CnAcs1 [1]
  IC50: > 50000 nM
  Ki: > 50000 nM
  inhibition of CnAcs1: no inhibition
CnAcs1 [2]
  ΔTm at 1000 µM: 6.7 °C

## NCC(=O)NS(=O)(=O)OCC1OC(n2cnc3c(N)ncnc32)C(O)C1O (centres unmarked) [glycine derivative of AMS]
CnAcs1 [1]
  inhibition of CnAcs1: no inhibition

## C. posadasii Acs1 (Coccidioides posadasii C735 delta SOWgp)
[3]
  Km: 117 ± 15 µM
[4]; 37.0 °C
  Km: 314 ± 32 µM

## C. immitis Acs1 (Coccidioides immitis RS)
[3]
  Km: 102 ± 8 µM
[4]; 37.0 °C
  Km: 441 ± 45 µM

## C. albicans Acs1 (Candida albicans SC5314)
[4]; other: substrate Km, other substrates in excess, 37 °C, ±S.E.M.
  Km: 471 ± 45 µM

## CCOP(=O)(O)OC[C@H]1O[C@@H](n2cnc3c(N)ncnc32)[C@H](O)[C@@H]1O [ethyl-AMP]
C. albicans Acs1
  IC50: 290 nM
C. posadasii Acs1
  IC50: 70 nM
A. fumigatus Acs1
  IC50: 60 nM
CnAcs1 [1]
  IC50: 2100 nM
  Ki: 470 nM
C. immitis Acs1
  IC50: 60 nM
CnAcs1 [2]
  ΔTm at 1000 µM: 14.2 °C

## COP(=O)(O)OC[C@H]1O[C@@H](n2cnc3c(N)ncnc32)[C@H](O)[C@@H]1O [methyl-AMP]
CnAcs1 [1]
  Ki: 39000 ± 11000 nM
  fold less active than ethyl AMP ester: ~100 fold
CnAcs1 [2]
  ΔTm at 1000 µM: 8.3 °C

## CCCOP(=O)(O)OC[C@H]1O[C@@H](n2cnc3c(N)ncnc32)[C@H](O)[C@@H]1O [propyl-AMP, propyl-adenosine monophosphate ester]
CnAcs1 [1]
  Ki: 1240 ± 200 nM
CnAcs1 [2]
  ΔTm at 1000 µM: 12.2 °C

B1: A. fumigatus Acs1 (Aspergillus fumigatus Af293) (protein)
chain: T2 sequence (Q4WQ02 2-670)
[5]; [7]
  Km: 42 ± 11 µM
[6]; [7]
  Km: 340 ± 26 µM

B2: CnAcs1 (Cryptococcus neoformans H99) (protein)
chain: GKTEVAPGVHHVHPLPDSVPESEDLFAPPPRMQGKEGRPKPHIGPNYESYVKEWAKTVGPNSDEWWAAKARETLDWYDDFKTVRAGGFEHGDVQWFPEGTLNAAYNCLDRHYYKNPKKTAIIYEADEPSESREVSYEELMQETCRVANVLKSYGVKKGDAVSIYLPMTWQAAAAFLACARIGAIHSAVFAGFSAESLRDRVNDCECKVLITTDEGRRGGKTIATKQIVDAALQQCPLVENVLVLRRTGNKVPMTEGRDKWWDEECAKMPAYCPCERMASEDPLFILYTSGSTGKPKGVVHSTAGYLLGTALTLKYVFDAHPDDRFACMADIGWITGHSYIIYGPLANGITTAVFESTPVYPTPSRYWDFVDKWKATQLYTAPTAIRLLRRMGEDHVKNHDLSSLRVLGSVGEPINPEAWHWYNDFAGKNQCAIVDTYWMTETGSISIAPLPGAISTKPGSATFPFFGMDVDIIDPQTGQVLEGNDVEGVLVARRPWPSIARTVYRDHKRYLETYMKPYPGYFFFGDGAARDYDGYMWIKGRVDDVINVSGHRLSTAEVESALILHKGVAETAVVGCADDLTGQAVYAFVTMKPEFDLKATKEADLSKELAIQVRKVIGPFAAPKKIYLVSDLPKTRSGKIMRRVLRKIVAGEGDQLGDLSSIADPQIVEEVKQKVTGSA
[5]; [8]
  Km: 59 ± 10 µM
[6]; [8]
  Km: 880 ± 170 µM

B3: S. cerevisiae Acs1 (Saccharomyces cerevisiae S288C) (protein)
chain: MSPSAVQSSKLEEQSSEIDKLKAKMSQSAATAQQKKEHEYEHLTSVKIVPQRPISDRLQPAIATHYSPHLDGLQDYQRLHKESIEDPAKFFGSKATQFLNWSKPFDKVFIPDPKTGRPSFQNNAWFLNGQLNACYNCVDRHALKTPNKKAIIFEGDEPGQGYSITYKELLEEVCQVAQVLTYSMGVRKGDTVAVYMPMVPEAIITLLAISRIGAIHSVVFAGFSSNSLRDRINDGDSKVVITTDESNRGGKVIETKRIVDDALRETPGVRHVLVYRKTNNPSVAFHAPRDLDWATEKKKYKTYYPCTPVDSEDPLFLLYTSGSTGAPKGVQHSTAGYLLGALLTMRYTFDTHQEDVFFTAGDIGWITGHTYVVYGPLLYGCATLVFEGTPAYPNYSRYWDIIDEHKVTQFYVAPTALRLLKRAGDSYIENHSLKSLRCLGSVGEPIAAEVWEWYSEKIGKNEIPIVDTYWQTESGSHLVTPLAGGVTPMKPGSASFPFFGIDAVVLDPNTGEELNTSHAEGVLAVKAAWPSFARTIWKNHDRYLDTYLNPYPGYYFTGDGAAKDKDGYIWILGRVDDVVNVSGHRLSTAEIEAAIIEDPIVAECAVVGFNDDLTGQAVAAFVVLKNKSSWSTATDDELQDIKKHLVFTVRKDIGPFAAPKLIILVDDLPKTRSGKIMRRILRKILAGESDQLGDVSTLSNPGIVRHLIDSVKL
[5]; [9]
  Km: 161 ± 73 µM
[6]; [9]
  Km: 348 ± 43 µM
